According to PubChem BioAssay (NCI):
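These data come from cells grown in 96-well plates and exposed to compound for 48 hours at five concentrations. GI50 = concentration required for 50% inhibition of growth. TGI: total growth inhibition.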

Columns and labels:
Experiment in all cases: NCI anticancer screen, dose series, 48 h
IGROV1 ovarian = system: IGROV1 ovarian
SW-620 colon = system: SW-620 colon
OVCAR-8 ovarian = system: OVCAR-8 ovarian
OVCAR-3 ovarian = system: OVCAR-3 ovarian
NCI-H522 lung = system: NCI-H522 lung
HCT-116 colon = system: HCT-116 colon
EKVX NSCLC = system: EKVX NSCLC
OVCAR-5 ovarian = system: OVCAR-5 ovarian
MOLT-4 leukemia = system: MOLT-4 leukemia

## CCN1CCN(Cc2ccc(NC(=O)Nc3ccc(-n4ccc5c(NC(=O)c6ccccc6)nccc54)cc3)cc2C(F)(F)F)CC1
IGROV1 ovarian
  GI50: 1.42 µM
  TGI: 4.39 µM
SW-620 colon
  GI50: 0.513 µM
  TGI: 1.7 µM
OVCAR-8 ovarian
  GI50: 0.968 µM
  TGI: 4.92 µM
OVCAR-3 ovarian
  GI50: 1.32 µM
  TGI: 2.63 µM

## N#C/C(=C\c1cccc(Br)c1)c1nc2ccccc2c(=O)[nH]1
NCI-H522 lung
  TGI: > 100 µM
HCT-116 colon
  TGI: > 100 µM
IGROV1 ovarian
  TGI: > 100 µM
SW-620 colon
  TGI: > 100 µM
EKVX NSCLC
  TGI: > 100 µM
OVCAR-8 ovarian
  TGI: > 100 µM
OVCAR-5 ovarian
  TGI: > 100 µM
MOLT-4 leukemia
  TGI: > 100 µM

## NC(Cc1[nH]nc2ccccc12)C(=O)O (configuration not stated)
NCI-H522 lung
  TGI: > 100 µM
HCT-116 colon
  TGI: > 100 µM
IGROV1 ovarian
  TGI: > 100 µM
SW-620 colon
  TGI: > 100 µM
EKVX NSCLC
  TGI: > 100 µM
OVCAR-8 ovarian
  TGI: > 100 µM
OVCAR-5 ovarian
  TGI: > 100 µM
OVCAR-3 ovarian
  TGI: > 100 µM
MOLT-4 leukemia
  TGI: > 100 µM

## COCC#C[C@@]1(O)CCCCC1CC(OC)OC (some centres not stated)
NCI-H522 lung
  TGI: 82.5 µM
HCT-116 colon
  TGI: > 100 µM
IGROV1 ovarian
  TGI: > 100 µM
EKVX NSCLC
  TGI: > 100 µM
OVCAR-8 ovarian
  TGI: > 100 µM
OVCAR-5 ovarian
  TGI: > 100 µM
MOLT-4 leukemia
  TGI: > 100 µM

## Nc1c(S(N)(=O)=O)cc(S(N)(=O)=O)cc1S(N)(=O)=O
NCI-H522 lung
  TGI: > 100 µM
HCT-116 colon
  TGI: > 100 µM
IGROV1 ovarian
  TGI: > 100 µM
SW-620 colon
  TGI: > 100 µM
EKVX NSCLC
  TGI: > 100 µM
OVCAR-8 ovarian
  TGI: > 100 µM
OVCAR-5 ovarian
  TGI: > 100 µM
OVCAR-3 ovarian
  TGI: > 100 µM
MOLT-4 leukemia
  TGI: > 100 µM

## Cc1cc(S(=O)(=O)Nc2n[nH]c(Nc3ccccc3)n2)c(SCC(=O)O)cc1Cl
NCI-H522 lung
  TGI: > 100 µM
HCT-116 colon
  TGI: > 100 µM
IGROV1 ovarian
  TGI: > 100 µM
SW-620 colon
  TGI: > 100 µM
EKVX NSCLC
  TGI: > 100 µM
OVCAR-8 ovarian
  TGI: > 100 µM
OVCAR-5 ovarian
  TGI: > 100 µM
OVCAR-3 ovarian
  TGI: > 100 µM
MOLT-4 leukemia
  TGI: > 100 µM

## O=c1c(-c2ccccc2)c(SCCN2CCCCCC2)n(-c2ccccc2)c(=S)n1-c1ccccc1
NCI-H522 lung
  TGI: > 100 µM
IGROV1 ovarian
  TGI: > 100 µM
SW-620 colon
  TGI: > 100 µM
EKVX NSCLC
  TGI: 35.7 µM
OVCAR-8 ovarian
  TGI: > 100 µM
OVCAR-5 ovarian
  TGI: 44.3 µM
OVCAR-3 ovarian
  TGI: > 100 µM
MOLT-4 leukemia
  TGI: 57.5 µM

## CCOc1ccc(N=Nc2ccc3cc(/C(C)=N/NC(=O)/C(C#N)=C\c4ccc(N(CCC#N)CCC#N)cc4)c(=O)oc3c2)cc1
NCI-H522 lung
  TGI: > 10 µM
HCT-116 colon
  TGI: > 10 µM
IGROV1 ovarian
  TGI: > 10 µM
SW-620 colon
  TGI: > 10 µM
EKVX NSCLC
  TGI: > 10 µM
OVCAR-8 ovarian
  TGI: > 10 µM
OVCAR-5 ovarian
  TGI: > 10 µM
OVCAR-3 ovarian
  TGI: > 10 µM
MOLT-4 leukemia
  TGI: > 10 µM

## Cn1c2c(c3ccccc31)CCN1C(=O)C34CCCC3CC21S4 (configuration not stated)
NCI-H522 lung
  TGI: > 100 µM
HCT-116 colon
  TGI: > 100 µM
IGROV1 ovarian
  TGI: > 100 µM
SW-620 colon
  TGI: > 100 µM
EKVX NSCLC
  TGI: > 100 µM
OVCAR-8 ovarian
  TGI: > 100 µM
OVCAR-5 ovarian
  TGI: > 100 µM
OVCAR-3 ovarian
  TGI: > 100 µM
MOLT-4 leukemia
  TGI: > 100 µM

## O=C(OC12CC3CC(CC(C3)C1)C2)c1ccc(NCc2cc(O)ccc2O)cc1
NCI-H522 lung
  TGI: 0.237 µM
HCT-116 colon
  TGI: 5.28 µM
IGROV1 ovarian
  TGI: 0.816 µM
SW-620 colon
  TGI: 4.92 µM
EKVX NSCLC
  TGI: 3.37 µM
OVCAR-8 ovarian
  TGI: 4.11 µM
OVCAR-5 ovarian
  TGI: 4.59 µM
OVCAR-3 ovarian
  TGI: 2.3 µM
MOLT-4 leukemia
  TGI: 0.451 µM

## CCC(=O)Nc1ccc(NS(=O)(=O)c2ccc(Cl)cc2)cc1
NCI-H522 lung
  TGI: > 100 µM
HCT-116 colon
  TGI: > 100 µM
IGROV1 ovarian
  TGI: > 100 µM
SW-620 colon
  TGI: > 100 µM
EKVX NSCLC
  TGI: > 100 µM
OVCAR-8 ovarian
  TGI: > 100 µM
OVCAR-5 ovarian
  TGI: > 100 µM
OVCAR-3 ovarian
  TGI: > 100 µM
MOLT-4 leukemia
  TGI: > 100 µM

## N#Cc1ccc(-c2nc(C#N)c(N)o2)cc1
NCI-H522 lung
  TGI: > 10 µM
HCT-116 colon
  TGI: > 10 µM
IGROV1 ovarian
  TGI: > 10 µM
SW-620 colon
  TGI: > 10 µM
EKVX NSCLC
  TGI: > 10 µM
OVCAR-8 ovarian
  TGI: > 10 µM
MOLT-4 leukemia
  TGI: > 10 µM

## N#Cc1nc(CCCN2C(=O)c3ccccc3C2=O)oc1N
NCI-H522 lung
  TGI: > 100 µM
HCT-116 colon
  TGI: > 100 µM
IGROV1 ovarian
  TGI: > 100 µM
SW-620 colon
  TGI: > 100 µM
EKVX NSCLC
  TGI: > 100 µM
OVCAR-8 ovarian
  TGI: > 100 µM
OVCAR-5 ovarian
  TGI: > 100 µM
OVCAR-3 ovarian
  TGI: > 100 µM
MOLT-4 leukemia
  TGI: > 100 µM

## CC(=O)OCC(=O)O[C@@H]1[C@H]2[C@@H](OC(=O)c3ccccc3)[C@@H](C)C[C@]2(O)[C@H](OC(C)=O)[C@@]2(C)C[C@]1(OC(C)=O)C[C@H]1C(=O)C(C)(C)[C@@H](OC(C)=O)[C@@H]12
NCI-H522 lung
  TGI: > 25 µM
HCT-116 colon
  TGI: > 25 µM
IGROV1 ovarian
  TGI: > 25 µM
SW-620 colon
  TGI: > 25 µM
EKVX NSCLC
  TGI: > 25 µM
OVCAR-8 ovarian
  TGI: > 25 µM
OVCAR-5 ovarian
  TGI: > 15.7 µM
OVCAR-3 ovarian
  TGI: > 25 µM
MOLT-4 leukemia
  TGI: > 25 µM

## C=C1C[C@@H]2CC[C@@]34C[C@H]5O[C@H]6[C@@H](O3)[C@H]3O[C@H](CC[C@@H]3O[C@H]6[C@H]5O4)CC(=O)C[C@@H]3[C@@H](OC)[C@@H](C[C@H](O)CN)O[C@H]3C[C@H]3O[C@@H](CC[C@@H]1O2)C[C@@H](C)C3=C
NCI-H522 lung
  TGI: 0.0412 µM
HCT-116 colon
  TGI: 0.101 µM
IGROV1 ovarian
  TGI: > 0.253 µM
SW-620 colon
  TGI: > 1 µM
EKVX NSCLC
  TGI: 0.273 µM
OVCAR-8 ovarian
  TGI: 0.167 µM
OVCAR-5 ovarian
  GI50: 0.00251 µM
  TGI: > 1 µM
OVCAR-3 ovarian
  GI50: 0.0002 µM
  TGI: 0.000836 µM
MOLT-4 leukemia
  TGI: 0.0479 µM

## C=C(C)[C@H]1CC(=O)/C(C)=C\CC/C(C)=C/CC[C@@]2(C)O[C@@H]2C1
HCT-116 colon
  TGI: 32.8 µM
IGROV1 ovarian
  TGI: > 100 µM
SW-620 colon
  TGI: > 100 µM
OVCAR-8 ovarian
  TGI: > 100 µM
OVCAR-5 ovarian
  TGI: 94.8 µM
OVCAR-3 ovarian
  TGI: 43.9 µM
MOLT-4 leukemia
  TGI: > 100 µM

## CCCCN1C(=O)CC2[C@@H]3CCc4cc(OC)ccc4C3CC[C@]2(C)C1=O (some centres not stated)
HCT-116 colon
  TGI: > 10 µM
IGROV1 ovarian
  TGI: > 10 µM
SW-620 colon
  TGI: > 10 µM
EKVX NSCLC
  TGI: > 10 µM
OVCAR-8 ovarian
  TGI: > 10 µM
OVCAR-5 ovarian
  TGI: > 10 µM
OVCAR-3 ovarian
  TGI: > 10 µM
MOLT-4 leukemia
  TGI: > 10 µM

## COc1cc2c3c(cc(Cl)nc3c1OC)C(=O)C(=O)N2
NCI-H522 lung
  TGI: 14.9 µM
HCT-116 colon
  TGI: 13.6 µM
IGROV1 ovarian
  TGI: 25.1 µM
SW-620 colon
  TGI: > 55.5 µM
EKVX NSCLC
  TGI: 11.9 µM
OVCAR-8 ovarian
  TGI: 43.9 µM
OVCAR-5 ovarian
  TGI: 32.2 µM
OVCAR-3 ovarian
  TGI: 32.5 µM
MOLT-4 leukemia
  TGI: > 31.2 µM

## CCOC(=O)/C=C(/C=C\COC1CCCCO1)c1ccccc1 (configuration not stated)
NCI-H522 lung
  TGI: 83.5 µM
HCT-116 colon
  TGI: 29.5 µM
IGROV1 ovarian
  TGI: > 100 µM
SW-620 colon
  TGI: 80.4 µM
EKVX NSCLC
  TGI: > 100 µM
OVCAR-8 ovarian
  TGI: 59.9 µM
OVCAR-5 ovarian
  TGI: > 100 µM
OVCAR-3 ovarian
  TGI: 80.8 µM
MOLT-4 leukemia
  TGI: 80.3 µM

## Oc1c(OCc2nnc(CCCCCCCCc3nnc(COc4ccc5ccccc5c4O)o3)o2)ccc2ccccc12
NCI-H522 lung
  TGI: > 100 µM
HCT-116 colon
  TGI: 35.6 µM
SW-620 colon
  TGI: > 100 µM
EKVX NSCLC
  TGI: > 100 µM
OVCAR-5 ovarian
  TGI: > 100 µM
MOLT-4 leukemia
  TGI: > 100 µM

## COC(=O)C1=C(C)NC(C)=C(C(=O)OC)C1c1cccc(N=O)c1
NCI-H522 lung
  TGI: 11.8 µM
HCT-116 colon
  TGI: 23.9 µM
IGROV1 ovarian
  TGI: 30.6 µM
SW-620 colon
  TGI: 17.7 µM
EKVX NSCLC
  TGI: 36 µM
OVCAR-8 ovarian
  TGI: 28.5 µM
OVCAR-5 ovarian
  TGI: 32.3 µM
OVCAR-3 ovarian
  TGI: 29 µM
MOLT-4 leukemia
  TGI: > 100 µM

## COc1cc(OC)cc(Oc2nc3cc(F)c(F)cc3nc2-c2ccccc2)c1
NCI-H522 lung
  TGI: > 100 µM
HCT-116 colon
  TGI: > 100 µM
IGROV1 ovarian
  TGI: > 100 µM
SW-620 colon
  TGI: > 100 µM
EKVX NSCLC
  TGI: > 100 µM
OVCAR-8 ovarian
  TGI: > 100 µM
OVCAR-5 ovarian
  TGI: > 100 µM
OVCAR-3 ovarian
  TGI: > 100 µM
MOLT-4 leukemia
  TGI: > 100 µM
